Values quoted from earlier work in patent US20200209238A1, “OPTIMIZING DIAGNOSTICS FOR GALACTOFURANOSE CONTAINING ANTIGENS” (The Johns Hopkins University, priority 2017, published 2020).

Molecular target: T1, hINTL-1 (Homo sapiens, UniProt Q8WWA0)
T1 construct: from tissue; host or cells: human urine
T1 sequence (Q8WWA0 19-298): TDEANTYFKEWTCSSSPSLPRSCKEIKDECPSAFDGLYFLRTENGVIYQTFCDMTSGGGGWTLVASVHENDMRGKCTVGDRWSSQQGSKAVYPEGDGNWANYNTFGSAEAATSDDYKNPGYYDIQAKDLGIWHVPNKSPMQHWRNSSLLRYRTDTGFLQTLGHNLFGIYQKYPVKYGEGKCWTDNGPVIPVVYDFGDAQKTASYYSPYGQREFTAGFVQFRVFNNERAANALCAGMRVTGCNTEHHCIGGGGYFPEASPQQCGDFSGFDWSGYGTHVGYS

- binding to hIntL-1: does not bind
Compound: CC(=O)N[C@H]1[C@H]([C@H](O)[C@H](O)CO)OC(O)(C(=O)O)C[C@@H]1O (stereo partly shown) [N-Acetylneuraminic acid (Neu5Ac), N-Acetylneuraminic acid]
